Laboratory results published in patent US20250230138A1, “COMPOUNDS HAVING A T-STRUCTURE FORMED BY AT LEAST FOUR CYCLES FOR USE IN THE TREATMENT OF CANCER AND OTHER INDICATIONS” (TheRas, Inc., priority 2022, published 2025).
Like-named read-outs stand apart in the source and are kept apart here.

Experiments:
[1] = molecular target: Cys242 in human PIK3CA (157-299) (Homo sapiens (Human), UniProt P42336); test: Covalent modification assay using MALDI-TOF MS; format: biochemical; details: 4 h reaction time point
Summary of the method: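 PIK3CA (157-299), 3.33 or 1 μM in 20 mM HEPES, 150 mM NaCl, 2 mM MgCl2, pH 7.3, was incubated with compound at room temperature in the dark for 15 min, 30 min, 2 h or 4 h. Linear MALDI-TOF read-out; % modification = adduct peak height over summed heights of all protein species.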

[2] = tested on: pAKT in BT474 cells; test: Cell-based pAKT HTRF assay in BT474 cells; details: BT474 cells, 4 hr incubation, read-out: pAKT inhibition IC50 in BT474 cells
Summary of the method: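 Compound titration: 3 μM downward in 3-fold steps, nine points, 4 hr on cells. Detection: lysis, then d2 plus Eu Cryptate antibody mix, room-temperature incubation of 4–24 h, and time-resolved fluorescence read at 615 nm.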

[3] = 3.33 μM protein target, 1:7.5 protein to compound ratio (compounds 1-852)
[4] = 1 μM protein target, 1:5 protein to compound ratio (compounds 853-1279)
[5] = Homo sapiens, BT-474, Compounds 10-999

Chain of Cys242 in human PIK3CA (157-299) (P42336 157-299): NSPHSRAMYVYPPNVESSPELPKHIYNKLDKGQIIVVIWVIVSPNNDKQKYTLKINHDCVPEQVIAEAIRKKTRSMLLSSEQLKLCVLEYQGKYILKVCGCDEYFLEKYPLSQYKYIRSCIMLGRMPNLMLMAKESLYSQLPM

Structure (SMILES) | % of modification [1, 3] | IC50 ([2]; Compounds 10-999) | % of modification [1, 4] | IC50 ([2]; Compounds 1000-1279) | IC50 [2, 5]
C=CC(=O)N1CCn2nc(-c3nc(-c4cnc5c(c4)CNC(=O)C5)c4ccsc4c3-c3c(F)cc(F)cc3OCCOC)cc2[C@H]1C [Compound 750] | A (percent of modification of PIK3CA protein ≥75%) | < 100 nM |  |  | 
C=CC(=O)N1CCc2sc(-c3nc(-c4ccc5c(c4)CCNC5)c4ccsc4c3-c3ccc(F)cc3OCCOC)nc2C1 [Compound 146] | A (percent of modification of PIK3CA protein ≥75%) | < 100 nM |  |  | 
C=CC(=O)N1Cc2cc(-c3nc(-c4cc5n(n4)CCNC5=O)c4ccsc4c3-c3c(F)cc(F)cc3OCCOC)nn2C[C@H]1C [Compound 685] | A (percent of modification of PIK3CA protein ≥75%) | < 100 nM |  |  | 
C=CC(=O)N1CCC(n2cc(-c3nc(-c4ccc5c(c4)CCNC5)c4ccsc4c3-c3ccc(F)cc3C#N)cn2)CC1 [Compound 93] | C (25%≤percent of modification <50%) | > 3000 nM |  |  | 
C=CC(=O)N1CCc2ncc(-c3nc(-c4ccc5nncn5c4)c4ccsc4c3-c3c(F)cc(F)cc3OCCOC)cc2C1 [Compound 941] |  | < 100 nM | A (percent of modification of PIK3CA protein ≥75%) |  | 
C=CC(=O)N1CCn2nc(-c3nc(-c4ccc(OCC5CN(C)C5)nc4)c4ccsc4c3-c3c(F)cc(F)cc3OCCOC)cc2C1C (stereo not shown) [Compound 1201] |  |  | A (percent of modification of PIK3CA protein ≥75%) | < 100 nM | 
C=CC(=O)N1CCn2nc(-c3nc(-c4ccc5c(c4)CNC5=O)c4ccsc4c3-c3c(F)cc(F)cc3OCCOC)cc2[C@H]1C [Compound 617, 5-((S)-6-((R)-5-acryloyl-4-methyl-4,5,6,7-tetrahydropyrazolo[1,5-a]pyrazin-2-yl)-7-(2,4-difluoro-6-(2-methoxyethoxy)phenyl)thieno[3,2-c]pyridin-4-yl)isoindolin-1-one] | A (percent of modification of PIK3CA protein ≥75%) | < 100 nM |  |  | 
C=CC(=O)N1Cc2cc(-c3nc(-c4cnc5c(cnn5C)c4)c4ccsc4c3-c3c(F)cc(F)cc3OCCO)nn2C[C@H]1C [Compound 885] |  | < 100 nM | A (percent of modification of PIK3CA protein ≥75%) |  | 
C=CC(=O)N1CCc2ncc(-c3nc(-c4ccc5c(c4)CNC(=O)C5)c4ccsc4c3-c3c(F)cc(F)cc3OCCOC)cc2C1 [Compound 963] |  | < 100 nM | A (percent of modification of PIK3CA protein ≥75%) |  | 
C=CC(=O)N1CCn2nc(-c3nc(N4CCC5(CC4)COC5)c4ccsc4c3-c3ccc(F)cc3OCCOC)cc2C1 [Compound 198, 1-[2-[7-[4-fluoro-2-(2-methoxyethoxy)phenyl]-4-(2-oxa-7-azaspiro[3.5]nonan-7-yl)thieno[3,2-c]pyridin-6-yl]-6,7-dihydro-4H-pyrazolo[1,5-a]pyrazin-5-yl]prop-2-en-1-one] | A (percent of modification of PIK3CA protein ≥75%) |  |  |  | < 100 nM
C=CC(=O)N1CCn2nc(-c3nc(-c4ccc(OC5CN(C)C5)nc4)c4ccsc4c3-c3c(F)cc(F)cc3OCCOC)cc2C1C (stereo not shown) [Compound 1205] |  |  | A (percent of modification of PIK3CA protein ≥75%) | < 100 nM | 
C=CC(=O)N1CCn2nc(-c3nc(-c4cnn(C)c4)c4ccsc4c3-c3c(F)cc(F)cc3F)cc2C1 [Compound 292] | A (percent of modification of PIK3CA protein ≥75%) | 100 to 1000 nM |  |  | 
C=CC(=O)N1Cc2cc(-c3nc(-c4ccc5c(c4)CCN(C)C5)c4ccsc4c3-c3c(F)cc(F)cc3OC3CC3)nn2C[C@H]1C [Compound 516] | A (percent of modification of PIK3CA protein ≥75%) | < 100 nM |  |  | 
C=CC(=O)N1CCC(n2cc(-c3nc(-c4cnn5c4C(=O)NCC5)c4ccsc4c3-c3ccc(F)cc3OCCOC)cn2)CC1 [Compound 230] | B (50%<percent of modification <75%) | 100 to 1000 nM |  |  | 
C=CC(=O)N1Cc2cc(-c3nc(-c4cnnc(C)c4)c4ccsc4c3-c3c(F)cc(F)cc3OCCOC)nn2C[C@H]1C [Compound 633] | D (percent of modification <25%) | 1000 to 3000 nM |  |  | 
C=CC(=O)N1CCn2nc(-c3nc(N4CC(CC(=O)N(C)C)C4)c4ccsc4c3-c3c(F)cc(F)cc3OCCOC)cc2C1C (stereo not shown) [Compound 1039] |  |  | A (percent of modification of PIK3CA protein ≥75%) | > 1000 nM | 
C=CC(=O)N1CCn2nc(-c3nc(-c4ccc(OCCN(C)C)cc4F)c4ccsc4c3-c3c(F)cc(F)cc3OCCOC)cc2C1C (stereo not shown) [Compound 1091] |  |  | A (percent of modification of PIK3CA protein ≥75%) | < 100 nM | 
C=CC(=O)N1CCn2nc(-c3nc(N4CCC5(CC4)CS(=O)(=O)C5)c4ccsc4c3-c3ccc(F)cc3OC(C)C)cc2C1 [Compound 211] | A (percent of modification of PIK3CA protein ≥75%) | < 100 nM |  |  | 

Structure (SMILES) | % of modification [1, 3] | IC50 ([2]; Compounds 10-999) | % of modification [1, 4] | IC50 ([2]; Compounds 1000-1279) | IC50 [2, 5]
C=CC(=O)N1CCn2nc(-c3nc(-c4ccc5c(cnn5C)c4)c4ccsc4c3-c3c(F)cc(F)cc3OCCO)cc2[C@@H]1C [Compound 1166] |  |  | D (percent of modification <25%) | 100 to 1000 nM | 
C=CC(=O)N1Cc2cc(-c3nc(-c4ccc5c(c4)CN(C)C5=O)c4ccsc4c3-c3c(F)cc(F)cc3OCCO)nn2CC1C (stereo not shown) [Compound 494] | A (percent of modification of PIK3CA protein ≥75%) | < 100 nM |  |  | 
C=CC(=O)N1C[C@H](C)n2nc(-c3nc(-c4ccc5c(c4)CCN(C)C5)c4ccsc4c3-c3c(F)cc(F)cc3OCCOC)cc2[C@@H]1C [Compound 601, 1-[(4S,7S)-2-[7-[2,4-difluoro-6-(2-methoxyethoxy)phenyl]-4-(2-methyl-3,4-dihydro-1H-isoquinolin-6-yl)thieno[3,2-c]pyridin-6-yl]-4,7-dimethyl-6,7-dihydro-4H-pyrazolo[1,5-a]pyrazin-5-yl]prop-2-en-1-one] | A (percent of modification of PIK3CA protein ≥75%) |  |  |  | < 100 nM
C=CC(=O)N1CCc2nc(-c3nc(-c4ccc5c(c4)CCNC5)c4ccsc4c3-c3ccc(F)cc3OCCO)sc2C1 [Compound 130] | A (percent of modification of PIK3CA protein ≥75%) | < 100 nM |  |  | 
C=CC(=O)N1CCc2ncc(-c3nc(-c4ccc5c(c4)CCN(C)C5)c4ccsc4c3-c3c(F)cc(F)cc3OC)cc2C1 [Compound 425] | A (percent of modification of PIK3CA protein ≥75%) | < 100 nM |  |  | 
C=CC(=O)N1CCn2nc(-c3nc(-c4ccc5c(c4)CNC5=O)c4ccsc4c3-c3ccc(F)cc3OC(C)C)cc2C1 [Compound 287] | A (percent of modification of PIK3CA protein ≥75%) | < 100 nM |  |  | 
C=CC(=O)N1CCn2nc(-c3nc(-c4ccc(C(=O)NCCN(C)C)cc4)c4ccsc4c3-c3c(F)cc(F)cc3OCCOC)cc2C1C (stereo not shown) [Compound 1059] |  |  | A (percent of modification of PIK3CA protein ≥75%) | < 100 nM | 
C=CC(=O)N1CCc2nc(-c3nc(-c4cccc(C(C)(C)C#N)c4)c4ccsc4c3-c3c(F)cc(F)cc3OCCOC)sc2C1 [Compound 440] | D (percent of modification <25%) | 100 to 1000 nM |  |  | 
C=CC(=O)N1CCc2nc(-c3nc(-c4ccc(C(C)(C)N)cc4)c4ccsc4c3-c3c(F)cc(F)cc3OCCOC)sc2C1 [Compound 443] | A (percent of modification of PIK3CA protein ≥75%) | 100 to 1000 nM |  |  | 
C=CC(=O)N1CCn2nc(-c3nc(-c4cncc(OCCN(C)C)c4)c4ccsc4c3-c3c(F)cc(F)cc3OCCOC)cc2C1C (stereo not shown) [Compound 1099] |  |  | A (percent of modification of PIK3CA protein ≥75%) | < 100 nM | 
C=CC(=O)N1CCn2nc(-c3nc(-c4ccc5c(c4)CCN(C)C5)c4ccsc4c3-c3c(F)cc(F)cc3OC3CC3)cc2[C@@H]1C [Compound 548] | A (percent of modification of PIK3CA protein ≥75%) | < 100 nM |  |  | 
C=CC(=O)N1Cc2cc(-c3nc(-c4ccc5c(c4)CCN(C)C5)c4ccsc4c3-c3c(F)cc(F)cc3OCCO)nn2C[C@H]1C [Compound 512] | A (percent of modification of PIK3CA protein ≥75%) | < 100 nM |  |  | 
C=CC(=O)N1CC(n2cc(-c3nc(-c4ccc5c(c4)CCNC5)c4c(c3-c3ccc(F)cc3OCCOC)CCC4)ccc2=O)C1 [Compound 154] | A (percent of modification of PIK3CA protein ≥75%) | < 100 nM |  |  | 
C=CC(=O)N1CCn2nc(-c3nc(-c4cccc(OCCN(C)C)c4)c4ccsc4c3-c3c(F)cc(F)cc3OCCO)cc2C1C (stereo not shown) [Compound 1194] |  |  | A (percent of modification of PIK3CA protein ≥75%) | < 100 nM | 
C=CC(=O)N1CCn2nc(-c3nc(-c4ccc(C(=O)N(C)C)cc4)c4ccsc4c3-c3c(F)cc(F)cc3OCCOC)cc2C1C (stereo not shown) [Compound 1100] |  |  | A (percent of modification of PIK3CA protein ≥75%) | < 100 nM | 
C=CC(=O)N1CCn2nc(-c3nc(-c4ccc5c(c4)C(=O)N(C)C5)c4ccsc4c3-c3c(F)cc(F)cc3OCCOC)cc2[C@H]1C [Compound 846] | A (percent of modification of PIK3CA protein ≥75%) | < 100 nM |  |  | 
C=CC(=O)N1Cc2cc(-c3nc(-c4ccnnc4)c4ccsc4c3-c3c(F)cc(F)cc3OCCOC)nn2CC1C (stereo not shown) [Compound 948] |  | < 100 nM | A (percent of modification of PIK3CA protein ≥75%) |  | 
